Assay type in all cases: biochemical
In one assay the target is T1, MMP-1 (Homo sapiens, UniProt P03956).
T1 sequence (P03956 100-469): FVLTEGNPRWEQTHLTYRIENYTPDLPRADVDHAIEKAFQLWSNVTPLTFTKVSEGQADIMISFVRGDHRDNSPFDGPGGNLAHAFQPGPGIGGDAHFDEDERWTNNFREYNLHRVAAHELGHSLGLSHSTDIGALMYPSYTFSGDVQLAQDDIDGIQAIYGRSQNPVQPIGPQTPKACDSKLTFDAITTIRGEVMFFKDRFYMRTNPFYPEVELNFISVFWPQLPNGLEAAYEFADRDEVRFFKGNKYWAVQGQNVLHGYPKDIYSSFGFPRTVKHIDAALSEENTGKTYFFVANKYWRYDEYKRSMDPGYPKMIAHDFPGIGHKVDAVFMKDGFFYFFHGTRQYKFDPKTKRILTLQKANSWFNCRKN
The assay is described as follows: MMP-1 inhibition (thiopeptide or fluorescent peptide substrate assay). The note with it: read-out: MMP-1 IC50.

For another assay, the target named is MMP-9 (Homo sapiens, UniProt P14780). Briefly: MMP-9 inhibition (thiopeptide or fluorescent peptide substrate assay).
In the next assay the target is TACE (Homo sapiens, UniProt P78536). Briefly: TACE inhibition (fluorescent peptidyl substrate). The note with it: for inhibition at 1 µM: at 1µM concentration.
A further assay deals with MMP-13 (Homo sapiens, UniProt P45452). Briefly: MMP-13 inhibition (thiopeptide or fluorescent peptide substrate assay).

pIC50: −log10 of the molar value. Structures can show the parent of a compound that is named as a salt. Where two headings read alike, the source gives them in different places.

Sequence of MMP-9 (P14780 94-707): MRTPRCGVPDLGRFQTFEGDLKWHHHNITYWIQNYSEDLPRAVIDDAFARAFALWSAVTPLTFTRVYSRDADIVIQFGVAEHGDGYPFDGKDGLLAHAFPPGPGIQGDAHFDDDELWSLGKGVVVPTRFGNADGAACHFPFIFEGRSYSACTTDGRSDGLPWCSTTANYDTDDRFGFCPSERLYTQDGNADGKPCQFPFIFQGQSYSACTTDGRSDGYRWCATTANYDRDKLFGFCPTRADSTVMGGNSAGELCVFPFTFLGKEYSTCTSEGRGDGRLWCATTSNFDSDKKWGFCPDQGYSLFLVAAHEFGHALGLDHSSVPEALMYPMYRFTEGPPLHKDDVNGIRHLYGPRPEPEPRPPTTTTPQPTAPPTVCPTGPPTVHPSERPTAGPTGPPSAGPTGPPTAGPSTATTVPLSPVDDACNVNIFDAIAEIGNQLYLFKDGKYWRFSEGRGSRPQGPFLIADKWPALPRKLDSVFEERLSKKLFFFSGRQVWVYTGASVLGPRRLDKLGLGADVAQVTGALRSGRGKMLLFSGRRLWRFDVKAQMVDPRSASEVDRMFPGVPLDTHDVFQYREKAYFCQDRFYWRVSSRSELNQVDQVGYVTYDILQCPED
Sequence of TACE (P78536 215-824): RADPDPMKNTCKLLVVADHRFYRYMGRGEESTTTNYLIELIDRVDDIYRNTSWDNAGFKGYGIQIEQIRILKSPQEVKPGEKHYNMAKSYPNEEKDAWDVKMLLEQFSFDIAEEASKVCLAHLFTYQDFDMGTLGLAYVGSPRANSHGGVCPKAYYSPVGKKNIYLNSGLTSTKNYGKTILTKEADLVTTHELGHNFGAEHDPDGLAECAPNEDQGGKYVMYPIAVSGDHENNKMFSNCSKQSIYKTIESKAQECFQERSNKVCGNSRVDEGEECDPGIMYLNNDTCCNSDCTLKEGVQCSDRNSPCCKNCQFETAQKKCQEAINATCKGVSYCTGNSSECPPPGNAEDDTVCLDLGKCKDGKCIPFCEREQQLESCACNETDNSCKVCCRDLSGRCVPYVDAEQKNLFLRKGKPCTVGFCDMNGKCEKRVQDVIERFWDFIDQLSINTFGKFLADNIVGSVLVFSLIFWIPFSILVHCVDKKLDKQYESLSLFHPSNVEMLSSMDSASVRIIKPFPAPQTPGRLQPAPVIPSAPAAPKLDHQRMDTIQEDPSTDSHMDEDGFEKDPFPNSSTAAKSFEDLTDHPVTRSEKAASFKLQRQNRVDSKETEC

The pIC50 is −log10 of the IC50, conventionally taken in molar units. On to “3-Methyl-2-[4-(pyridin-4-yloxy)-benzensulfonylamino]-N-hydroxy-benzamide [Example 417]”, for which the pIC50 at MMP-1 was 5.49; on MMP-9 (read-out: MMP-9 IC50), 8.17.

Regarding `COc1ccc(S(=O)(=O)N(Cc2ccccc2)c2ccccc2C(=O)NO)cc1` [Example 23, 2-[Benzyl-(4-methoxy-benzenesulfonyl)-amino]-N-hydroxy-benzamide], the pIC50 was less than 6.00 on TACE (read-out: TACE IC50), 6.19 at MMP-1 and 6.19 against MMP-9.

Consider `COc1ccc(S(=O)(=O)N(Cc2ccccc2)c2c(Cl)cccc2C(=O)NO)cc1` [Example 24, 2-[Benzyl-(4-methoxy-benzenesulfonyl)-amino]-3-chloro-N-hydroxy-benzamide], for which the values for the negative logarithm of the IC50 (pIC50) on MMP-1 and at MMP-9 (read-out: MMP-9 IC50) were 6.40 and 7.51, respectively.

For the molecule `COc1ccc(S(=O)(=O)N(Cc2ccccc2)c2c(C)cccc2C(=O)NO)cc1` [Example 28, 2-[Benzyl-(4-methoxy-benzenesulfonyl)-amino]-N-hydroxy-3-methyl-benzamide], the negative logarithm of the IC50 (pIC50) is 6.34 on TACE (read-out: TACE IC50) and 7.30 against MMP-13.

In the case of `COc1ccc(S(=O)(=O)N(Cc2ccccc2)c2c(OCC(=O)NO)cccc2C(=O)NO)cc1` [Example 54, 2-[Benzyl-(4-methoxy-benzenesulfonyl)-amino]-N-hydroxy-3-hydroxycarbamoylmethoxy-benzamide], the pIC50 against MMP-13 is 8.40; at MMP-1 it was 7.62; at MMP-9 (read-out: MMP-9 IC50), 8.52.

Regarding `CCCCC#Cc1cc(C)c(N(Cc2ccccc2)S(=O)(=O)c2ccc(OC)cc2)c(C(=O)NO)c1` [Example 77, 2-[Benzyl-(4-methoxy-benzenesulfonyl)-amino]-5-hex-1-ynyl-N-hydroxy-3-methyl-benzamide], the negative-log IC50 (pIC50) at MMP-9 (read-out: MMP-9 IC50) is 6.88.

As to `COc1ccc(S(=O)(=O)N(Cc2cccnc2)c2ccccc2C(=O)NO)cc1` [Example 85, N-Hydroxy-2-[(4-methoxy-benzenesulfonyl)-pyridin-3-ylmethyl-amino]-benzamide], the pIC50 on TACE (read-out: TACE IC50) was less than 6.00; on MMP-9 (read-out: MMP-9 IC50), 6.18.

With `COc1ccc(S(=O)(=O)N(Cc2ccccc2)c2c(OC)cccc2C(=O)NO)cc1` [Example 101, 2-[Benzyl-(4-methoxy-benzenesulfonyl)-amino]-N-hydroxy-3-methoxy-benzamide], the pIC50 is 6.37 at TACE (read-out: TACE IC50), 6.57 on MMP-1 and 7.64 against MMP-9.

On to `COc1ccc(S(=O)(=O)N(Cc2ccccc2)c2c(C(=O)NO)ccc(Cl)c2C)cc1` [Example 102, 2-[Benzyl-(4-methoxy-benzenesulfonyl)-amino]-4-chloro-N-hydroxy-3-methyl-benzamide], for which the results for the pIC50 on TACE (read-out: TACE IC50), on MMP-1 and at MMP-9 (read-out: MMP-9 IC50) were 6.79, 6.50 and 7.54, respectively.

Consider `COc1ccc(S(=O)(=O)N(Cc2ccccc2)c2c(C(=O)NO)cccc2C(F)(F)F)cc1` [Example 125, 2-[Benzyl-(4-methoxy-benzenesulfonyl)-amino]-N-hydroxy-3-trifluoromethyl-benzamide], for which the negative logarithm of the IC50 (pIC50) at TACE (read-out: TACE IC50) was 6.52; against MMP-13, 6.87; at MMP-1, less than 6.00.

In the case of `COc1ccc(S(=O)(=O)N(Cc2ccccc2)c2c(C(=O)NO)cc(OC)c(OC)c2OC)cc1` [Example 156, 2-[Benzyl-(4-methoxy-benzenesulfonyl)-amino]-N-hydroxy-3,4,5-trimethoxy-benzamide], the pIC50 on MMP-13 (read-out: MMP-13 IC50) is 6.87; on MMP-1 it was less than 6.00; at MMP-9 (read-out: MMP-9 IC50) it was 6.98.

Take `COc1ccc(S(=O)(=O)N(Cc2cccnc2)c2c(C(=O)NO)cc(OC)c(OC)c2OC)cc1` [Example 158, N-Hydroxy-3,4,5-trimethoxy-2-[(4-methoxy-benzenesulfonyl)-pyridin-3-ylmethyl-amino]-benzamide]: the pIC50 on MMP-13 (read-out: MMP-13 IC50) was 7.21; on MMP-1 it was less than 6.00; at MMP-9 (read-out: MMP-9 IC50), 7.96.

For the molecule `COc1ccc(S(=O)(=O)N2CCCOc3cccc(C(=O)NO)c32)cc1` [Example 165, 5-(4-Methoxy-benzenesulfonyl)-2,3,4,5-tetrahydro-1,5-benzoxazepine-6-carboxylic acid hydroxyamide], the pIC50 was 6.46 at MMP-13 (read-out: MMP-13 IC50) and 6.54 at MMP-9 (read-out: MMP-9 IC50).

Regarding `COc1ccc(S(=O)(=O)N2Cc3ccccc3COc3cccc(C(=O)NO)c32)cc1` [Example 166, 12-(4-Methoxy-benzenesulfonyl)-11,12-dihydro-6H-dibenz[b,f][1,4]oxazocine-1-carboxylic acid hydroxyamide], the values for the pIC50 on MMP-13 (read-out: MMP-13 IC50) and at MMP-9 (read-out: MMP-9 IC50) were less than 6.52 and 6.69, respectively.

As to `COc1ccc(S(=O)(=O)N2CCCCOc3cccc(C(=O)NO)c32)cc1` [Example 167, 6-(4-Methoxy-benzenesulfonyl)-3,4,5,6-tetrahydro-2H-1,6-benzoxazocine-7-carboxylic acid hydroxyamide], the negative-log IC50 (pIC50) is 6.75 at MMP-13 (read-out: MMP-13 IC50) and 7.38 at MMP-9 (read-out: MMP-9 IC50).

For the molecule `COc1ccc(S(=O)(=O)N(C)c2c(CN3CCN(C)CC3)cccc2C(=O)NO)cc1` [Example 194, N-Hydroxy-2-[(4-methoxybenzenesulfonyl)-methylamino]-3-(4-methylpiperazin-1-ylmethyl)-benzamide], the pIC50 at TACE (read-out: TACE IC50) is 6.81; on MMP-13 (read-out: MMP-13 IC50), 7.92; on MMP-1, 6.51.

In general, inhibition refers to the share of the control response that was lost under treatment. High values mean strong suppression, low ones little suppression. As for `CCN(CC)Cc1cc(C)c(N(Cc2ccccc2)S(=O)(=O)c2ccc(OC)cc2)c(C(=O)NO)c1` [Example 282, 2-[Benzyl-(4-methoxy-benzenesulfonyl)-amino]-5-diethylaminomethyl-N-hydroxy-3-methyl-benzamide], the inhibition at 1 µM on TACE is 44%. The pIC50 at MMP-13 (read-out: MMP-13 IC50) was 6.95; at MMP-1, 5.98.

For `CCOc1ccc(S(=O)(=O)N(Cc2ccccc2)c2c(C)cc(C)cc2C(=O)NO)cc1` [Example 302, 2-[Benzyl-(4-ethoxy-benzenesulfonyl)-amino]-N-hydroxy-3,5-dimethyl-benzamide], the pIC50 was 6.76 on TACE (read-out: TACE IC50), 7.62 on MMP-13 (read-out: MMP-13 IC50) and 6.54 at MMP-1.

Regarding `CCCOc1ccc(S(=O)(=O)N(Cc2ccccc2)c2c(C)cc(C)cc2C(=O)NO)cc1` [Example 303, 2-[Benzyl-(4-propoxy-benzenesulfonyl)-amino]-N-hydroxy-3,5-dimethyl-benzamide], the values for the pIC50 on MMP-13 (read-out: MMP-13 IC50), at MMP-1 and at MMP-9 (read-out: MMP-9 IC50) were 6.98, 5.56 and 7.19, respectively.

As to `Cc1cc(C)c(N(Cc2ccccc2)S(=O)(=O)c2ccc(OC(C)C)cc2)c(C(=O)NO)c1` [Example 304, 2-[Benzyl-(4-isopropoxy-benzenesulfonyl)-amino]-N-hydroxy-3,5-dimethyl-benzamide], on TACE, the inhibition at 1 µM stood at 25%. For the same molecule, the results for the pIC50 at MMP-13 (read-out: MMP-13 IC50) and on MMP-1 were 6.52 and 5.39, respectively.

Consider `COC(=O)c1cccc(C(=O)NO)c1N(Cc1cccnc1)S(=O)(=O)c1ccc(OC)cc1` [Example 369, N-Hydroxy-2-[(4-methoxy-benzenesulfonyl)-pyridin-3-ylmethyl-amino]-isophthalamic acid methyl ester], for which the figures for the pIC50 on TACE, at MMP-1 and at MMP-9 (read-out: MMP-9 IC50) were 7.42, 6.68 and 8.19, respectively.

On to `COc1ccc(S(=O)(=O)N(Cc2ccc(N3CCN(C)CC3)cc2)c2c(C)cccc2C(=O)NO)cc1` [Example 382, N-Hydroxy-2-{(4-methoxy-benzenesulfonyl)-[4-(4-methyl-piperazin-1-yl)-benzyl]-amino}-3-methyl-benzamide], for which the negative logarithm of the IC50 (pIC50) on TACE is 6.84; against MMP-13 it was 7.70; at MMP-9 (read-out: MMP-9 IC50), 8.19.

In the case of `COc1ccc(S(=O)(=O)N(Cc2cccnc2)c2c(C)cc(-c3ccccc3)cc2C(=O)NO)cc1` [Example 397, 4-[(4-Methoxy-benzenesulfonyl)-pyridin-3-ylmethyl-amino]-5-methyl-biphenyl-3-carboxylic acid hydroxyamide hydrochloride salt], the negative-log IC50 (pIC50) against TACE was 7.19; on MMP-9, 8.52.

In the case of `COc1ccc(S(=O)(=O)N(Cc2cccnc2)c2c(C)cc(-c3ccsc3)cc2C(=O)NO)cc1` [Example 398, N-Hydroxy-2-[(4-methoxy-benzenesulfonyl)-pyridin-3-ylmethyl-amino]-3-methyl-5-thiophen-3-yl-benzamide hydrochloride salt], the figures for the pIC50 on TACE (read-out: TACE IC50), at MMP-1 and on MMP-9 (read-out: MMP-9 IC50) were 7.25, 7.07 and 8.70, respectively.

Regarding `COc1ccc(S(=O)(=O)N(Cc2cccnc2)c2c(C)cc(-c3cccc(C(F)(F)F)c3)cc2C(=O)NO)cc1` [Example 406, 4-[(4-Methoxy-benzenesulfonyl)-pyridin-3-ylmethyl-amino]-5-methyl-3'-trifluoromethyl-biphenyl-3-carboxylic acid hydroxyamide hydrochloride salt], at MMP-9 (read-out: MMP-9 IC50), the pIC50 is 8.96.

On to `Cc1cccc(C(=O)NO)c1N(Cc1ccc(Cl)cc1)S(=O)(=O)c1ccc(-c2ccccn2)s1` [Example 407, 2-[(4-Chloro-benzyl)-(5-pyridin-2-yl-thiophene-2-sulfonyl)-amino]-N-hydroxy-3-methyl-benzamide], for which the pIC50 is 7.46 on MMP-13 (read-out: MMP-13 IC50), 5.77 at MMP-1 and 6.70 on MMP-9 (read-out: MMP-9 IC50).

On to `Cc1ccc(CN(c2c(C)cccc2C(=O)NO)S(=O)(=O)c2ccc(-c3ccccn3)s2)cc1C` [Example 408, 2-[(3,4-Dimethyl-benzyl)-(5-pyridin-2-yl-thiophene-2-sulfonyl)-amino]-N-hydroxy-3-methyl-benzamide], for which the pIC50 on MMP-13 (read-out: MMP-13 IC50) is 6.83; at MMP-1 it was 5.46; at MMP-9 (read-out: MMP-9 IC50), 6.14.

These data come from patent EP0938471B1, “THE PREPARATION AND USE OF ORTHO-SULFONAMIDO ARYL HYDROXAMIC ACIDS AS MATRIX METALLOPROTEINASE AND TACE INHIBITORS” (priority 1996, dated 1998).
